For 25 compounds, activity coefficient results are on record in the NIST ThermoML archive (doi:10.1016/j.jct.2012.01.019).

Numbers after ± are expanded uncertainties.

The data set in a line: activity coefficient (dimensionless); of the first substance listed, at infinite dilution; xn = mol fraction of the nth substance listed. The settings on record: 101 kPa, Liquid, Chromatography, x1 = 0.

With `Cc1ccccc1C` [1,2-dimethylbenzene] + COCC[N+]1(C)CCCCC1.O=S(=O)([N-]S(=O)(=O)C(F)(F)F)C(F)(F)F, the activity coefficient reads like this: (318.15 K) 1.66 ± 0.11; (328.15 K) 1.68 ± 0.11; (338.15 K) 1.69 ± 0.11; (348.15 K) 1.71 ± 0.11; (358.15 K) 1.72 ± 0.12; (368.15 K) 1.73 ± 0.12.
Consider `Cc1cccc(C)c1` [1,3-dimethylbenzene] + COCC[N+]1(C)CCCCC1.O=S(=O)([N-]S(=O)(=O)C(F)(F)F)C(F)(F)F, for which the activity coefficient (318.15 K) came out at 1.8 ± 0.12; the activity coefficient (328.15 K) was found to be 1.81 ± 0.12; the activity coefficient (338.15 K) amounted to 1.82 ± 0.12; the activity coefficient (348.15 K) amounted to 1.83 ± 0.12; the activity coefficient (358.15 K) was 1.85 ± 0.12; the activity coefficient (368.15 K) amounted to 1.86 ± 0.13.
On to `Cc1ccc(C)cc1` [1,4-dimethylbenzene] + COCC[N+]1(C)CCCCC1.O=S(=O)([N-]S(=O)(=O)C(F)(F)F)C(F)(F)F, for which the activity coefficient worked out at 1.08 ± 0.07 (318.15 K); 1.1 ± 0.07 (328.15 K); 1.13 ± 0.07 (338.15 K); 1.14 ± 0.07 (348.15 K); 1.16 ± 0.07 (358.15 K); 1.19 ± 0.08 (368.15 K).
For `C1COCCO1` [1,4-dioxane] + COCC[N+]1(C)CCCCC1.O=S(=O)([N-]S(=O)(=O)C(F)(F)F)C(F)(F)F, the activity coefficient is 0.616 ± 0.043 (318.15 K); 0.636 ± 0.044 (328.15 K); 0.654 ± 0.045 (338.15 K); 0.673 ± 0.046 (348.15 K); 0.687 ± 0.046 (358.15 K); 0.705 ± 0.047 (368.15 K).
With `C=CCCCCCCCC` [1-decene] + COCC[N+]1(C)CCCCC1.O=S(=O)([N-]S(=O)(=O)C(F)(F)F)C(F)(F)F, the activity coefficient by setting is: (318.15 K) 36.2 ± 2.5; (328.15 K) 33.7 ± 2.3; (338.15 K) 31.4 ± 2.1; (348.15 K) 29.2 ± 2; (358.15 K) 27.4 ± 1.9; (368.15 K) 26 ± 1.8.
Turning to `C=CCCCCC` [1-heptene] + COCC[N+]1(C)CCCCC1.O=S(=O)([N-]S(=O)(=O)C(F)(F)F)C(F)(F)F, the activity coefficient turned out to be 12.4 ± 0.8 (318.15 K); 11.9 ± 0.8 (328.15 K); 11.4 ± 0.8 (338.15 K); 10.8 ± 0.7 (348.15 K); 10.4 ± 0.7 (358.15 K); 9.99 ± 0.68 (368.15 K).
On to `C#CCCCCC` [1-heptyne] + COCC[N+]1(C)CCCCC1.O=S(=O)([N-]S(=O)(=O)C(F)(F)F)C(F)(F)F, for which the activity coefficient (318.15 K) turned out to be 4.22 ± 0.29; the activity coefficient (328.15 K) amounted to 4.21 ± 0.29; the activity coefficient (338.15 K) was 4.19 ± 0.29; the activity coefficient (348.15 K) was 4.17 ± 0.28; the activity coefficient (358.15 K) came to 4.15 ± 0.28; the activity coefficient (368.15 K) is 4.15 ± 0.28.
As to `C#CCCCC` [1-hexyne] + COCC[N+]1(C)CCCCC1.O=S(=O)([N-]S(=O)(=O)C(F)(F)F)C(F)(F)F, the activity coefficient runs as follows: (318.15 K) 2.98 ± 0.2; (328.15 K) 2.99 ± 0.2; (338.15 K) 3 ± 0.2; (348.15 K) 3.01 ± 0.2; (358.15 K) 3.02 ± 0.21; (368.15 K) 3.03 ± 0.21.
Turning to `CCC[N+](=O)[O-]` [1-nitropropane] + COCC[N+]1(C)CCCCC1.O=S(=O)([N-]S(=O)(=O)C(F)(F)F)C(F)(F)F, the activity coefficient by setting is: (318.15 K) 0.724 ± 0.048; (328.15 K) 0.725 ± 0.048; (338.15 K) 0.726 ± 0.048; (348.15 K) 0.727 ± 0.048; (358.15 K) 0.727 ± 0.048; (368.15 K) 0.728 ± 0.048.
As to `C#CCCCCCC` [1-octyne] + COCC[N+]1(C)CCCCC1.O=S(=O)([N-]S(=O)(=O)C(F)(F)F)C(F)(F)F, the activity coefficient reads like this: (318.15 K) 6.02 ± 0.41; (328.15 K) 5.92 ± 0.4; (338.15 K) 5.85 ± 0.4; (348.15 K) 5.77 ± 0.39; (358.15 K) 5.7 ± 0.39; (368.15 K) 5.63 ± 0.38.
Consider `C=CCCC` [1-pentene] + COCC[N+]1(C)CCCCC1.O=S(=O)([N-]S(=O)(=O)C(F)(F)F)C(F)(F)F, for which the activity coefficient came to 6.03 ± 0.41 (318.15 K); 5.9 ± 0.4 (328.15 K); 5.73 ± 0.39 (338.15 K); 5.6 ± 0.38 (348.15 K); 5.46 ± 0.37 (358.15 K); 5.36 ± 0.37 (368.15 K).
With `CC(C)CC(C)(C)C` [2,2,4-trimethylpentane] + COCC[N+]1(C)CCCCC1.O=S(=O)([N-]S(=O)(=O)C(F)(F)F)C(F)(F)F, the activity coefficient is 23.7 ± 1.1 (318.15 K); 22.3 ± 1 (328.15 K); 20.9 ± 1 (338.15 K); 19.7 ± 0.9 (348.15 K); 18.5 ± 0.9 (358.15 K); 17.6 ± 0.8 (368.15 K).
In the case of `CCC(C)(C)C` [2,2-dimethylbutane] + COCC[N+]1(C)CCCCC1.O=S(=O)([N-]S(=O)(=O)C(F)(F)F)C(F)(F)F, the activity coefficient (318.15 K) was found to be 13.5 ± 0.6; the activity coefficient (328.15 K) was 12.9 ± 0.6; the activity coefficient (338.15 K) came to 12.4 ± 0.6; the activity coefficient (348.15 K) is 11.8 ± 0.5; the activity coefficient (358.15 K) amounted to 11.3 ± 0.5; the activity coefficient (368.15 K) was 10.9 ± 0.5.
`CCOC(C)(C)C` [2-ethoxy-2-methylpropane] + COCC[N+]1(C)CCCCC1.O=S(=O)([N-]S(=O)(=O)C(F)(F)F)C(F)(F)F: the activity coefficient runs as follows: (318.15 K) 5.82 ± 0.4; (328.15 K) 5.71 ± 0.39; (338.15 K) 5.62 ± 0.38; (348.15 K) 5.53 ± 0.38; (358.15 K) 5.44 ± 0.37; (368.15 K) 5.38 ± 0.37.
With `CCC(C)(C)OC` [2-methoxy-2-methylbutane] + COCC[N+]1(C)CCCCC1.O=S(=O)([N-]S(=O)(=O)C(F)(F)F)C(F)(F)F, the activity coefficient runs as follows: (318.15 K) 3.74 ± 0.25; (328.15 K) 3.74 ± 0.25; (338.15 K) 3.73 ± 0.25; (348.15 K) 3.73 ± 0.25; (358.15 K) 3.73 ± 0.25; (368.15 K) 3.72 ± 0.25.
`COC(C)(C)C` [2-methoxy-2-methylpropane] + COCC[N+]1(C)CCCCC1.O=S(=O)([N-]S(=O)(=O)C(F)(F)F)C(F)(F)F: the activity coefficient reads like this: (318.15 K) 2.56 ± 0.17; (328.15 K) 2.59 ± 0.18; (338.15 K) 2.63 ± 0.18; (348.15 K) 2.66 ± 0.18; (358.15 K) 2.69 ± 0.18; (368.15 K) 2.73 ± 0.19.
For `CC(C)CO` [2-methyl-1-propanol] + COCC[N+]1(C)CCCCC1.O=S(=O)([N-]S(=O)(=O)C(F)(F)F)C(F)(F)F, the activity coefficient (318.15 K) turned out to be 2.61 ± 0.18; the activity coefficient (328.15 K) is 2.34 ± 0.16; the activity coefficient (338.15 K) is 2.12 ± 0.14; the activity coefficient (348.15 K) amounted to 1.92 ± 0.13; the activity coefficient (358.15 K) was 1.75 ± 0.12; the activity coefficient (368.15 K) turned out to be 1.62 ± 0.11.
Take `CC(C)(C)O` [2-methylpropan-2-ol] + COCC[N+]1(C)CCCCC1.O=S(=O)([N-]S(=O)(=O)C(F)(F)F)C(F)(F)F: the activity coefficient turned out to be 1.87 ± 0.13 (318.15 K); 1.73 ± 0.12 (328.15 K); 1.61 ± 0.11 (338.15 K); 1.5 ± 0.1 (348.15 K); 1.42 ± 0.09 (358.15 K); 1.34 ± 0.09 (368.15 K).
Turning to `CCC(C)CC` [3-methylpentane] + COCC[N+]1(C)CCCCC1.O=S(=O)([N-]S(=O)(=O)C(F)(F)F)C(F)(F)F, the activity coefficient reads like this: (318.15 K) 14.7 ± 0.7; (328.15 K) 13.9 ± 0.6; (338.15 K) 13.2 ± 0.6; (348.15 K) 12.5 ± 0.6; (358.15 K) 11.9 ± 0.6; (368.15 K) 11.5 ± 0.5.
Turning to `C=C(C)c1ccccc1` [(1-methylethenyl)benzene] + COCC[N+]1(C)CCCCC1.O=S(=O)([N-]S(=O)(=O)C(F)(F)F)C(F)(F)F, the activity coefficient is 1.61 ± 0.11 (328.15 K); 1.66 ± 0.11 (338.15 K); 1.7 ± 0.11 (348.15 K); 1.74 ± 0.12 (358.15 K); 1.78 ± 0.12 (368.15 K).
Take `CC(C)=O` [acetone] + COCC[N+]1(C)CCCCC1.O=S(=O)([N-]S(=O)(=O)C(F)(F)F)C(F)(F)F: the activity coefficient (318.15 K) amounted to 0.462 ± 0.036; the activity coefficient (328.15 K) worked out at 0.471 ± 0.037; the activity coefficient (338.15 K) is 0.48 ± 0.037; the activity coefficient (348.15 K) was 0.49 ± 0.037; the activity coefficient (358.15 K) was determined as 0.498 ± 0.038; the activity coefficient (368.15 K) stood at 0.507 ± 0.038.
As to `CC#N` [acetonitrile] + COCC[N+]1(C)CCCCC1.O=S(=O)([N-]S(=O)(=O)C(F)(F)F)C(F)(F)F, the activity coefficient is 0.471 ± 0.037 (318.15 K); 0.471 ± 0.037 (328.15 K); 0.473 ± 0.037 (338.15 K); 0.473 ± 0.037 (348.15 K); 0.474 ± 0.037 (358.15 K); 0.475 ± 0.037 (368.15 K).
Regarding `c1ccccc1` [benzene] + COCC[N+]1(C)CCCCC1.O=S(=O)([N-]S(=O)(=O)C(F)(F)F)C(F)(F)F, the activity coefficient by setting is: (318.15 K) 0.912 ± 0.058; (328.15 K) 0.922 ± 0.058; (338.15 K) 0.934 ± 0.059; (348.15 K) 0.943 ± 0.059; (358.15 K) 0.951 ± 0.06; (368.15 K) 0.961 ± 0.06.
Consider `CCCCO` [butan-1-ol] + COCC[N+]1(C)CCCCC1.O=S(=O)([N-]S(=O)(=O)C(F)(F)F)C(F)(F)F, for which the activity coefficient reads like this: (318.15 K) 2.72 ± 0.19; (328.15 K) 2.45 ± 0.17; (338.15 K) 2.22 ± 0.15; (348.15 K) 2.01 ± 0.14; (358.15 K) 1.85 ± 0.12; (368.15 K) 1.71 ± 0.11.
For the compound `CCC(C)O` (centres undefined) [butan-2-ol] + COCC[N+]1(C)CCCCC1.O=S(=O)([N-]S(=O)(=O)C(F)(F)F)C(F)(F)F, the activity coefficient reads like this: (318.15 K) 2.26 ± 0.15; (328.15 K) 2.07 ± 0.14; (338.15 K) 1.89 ± 0.13; (348.15 K) 1.74 ± 0.12; (358.15 K) 1.62 ± 0.11; (368.15 K) 1.52 ± 0.1.
